Test results reported in the NIST ThermoML archive (doi:10.1021/je5000617).

Conditions: for mass density / speed of sound / viscosity: 101.33 kPa, Liquid; for viscosity: Concentric cylinders viscometry

CCCCCCCCOS(=O)(=O)[O-].CCCCn1cc[n+](C)c1 [1-butyl-3-methylimidazolium octyl sulfate]
Conditions	mass density [kg/m3]	speed of sound [m/s]	surface tension liquid-gas [mN/m]
303 K	1060.2	1461	35.7
308 K	1057.8	1450	35.2
313 K	1053.2	1430	34.9
318 K	1050.8	1419	34.7
323 K	1046.4	1406	34.3
328 K	1042.2	1391	33.9
333 K	1039.8	1380	–

CCn1cc[n+](C)c1.CS(=O)(=O)[O-] [1-ethyl-3-methylimidazolium methanesulfonate]
Conditions	mass density [kg/m3]	speed of sound [m/s]	surface tension liquid-gas [mN/m]	viscosity [mPa·s]
303 K	1247	1796	47.8	120
308 K	1243.2	1778	47.4	87
313 K	1240.2	1764	47	63
318 K	1237.6	1752	46.7	48
323 K	1234.4	1738	46.1	37
328 K	1232.4	1727	45.7	29
333 K	1230.2	1708	45.4	20

CCCCn1cc[n+](C)c1.F[P-](F)(F)(F)(F)F [1-butyl-3-methylimidazolium hexafluorophosphate]
Conditions	mass density [kg/m3]	speed of sound [m/s]	surface tension liquid-gas [mN/m]	viscosity [mPa·s]
303 K	1359.4	1433	45.3	190
308 K	1358.2	1417	45	150
313 K	1353.2	1408	44.7	132
318 K	1349.8	1395	44.4	106
323 K	1346.8	1384	44.1	90
328 K	1343.8	1374	43.8	75
333 K	1340.6	1363	43.5	58
